The text below walks through data of publication PMC11558128 (Advanced Science, 2024).

Positions of bridges follow the written chain, without caps; N, C: chain ends. Residues, ends and D or L forms follow the SMILES beside them.

Series [1] deals with other Kv channels (hKv1.1-1.5, rKv2.1, hKv3.1-3.4, mKv4.1, hKv7.2 and hERG).
The target of the next series is T1, hNav1.7 (Homo sapiens, UniProt Q15858).
T1 construct: expressed in transfected cells; host or cells: HEK293T
Also on record: method as in 2 sources, one per row (each row's own in cited_ref): ref 11c (a number printed in a supplementary file, which may have a reference list of its own: not looked up in the article's list) ||| ref 11c = [11]; PMID 27129258; doi:10.1074/jbc.M116.725978; 11 a) G. L. Adams , P. S. Pall , S. M. Grauer , X. Zhou , J. E. Ballard , M. Vavrek , R. L. Kraus , P. Morissette , N. Li , S. Colarusso , E. Bianchi , A. Palani , R. Klein , C. T. John , D. Wang , M. The conditions noted are these: vs HNTX-III; ref 11c; cited from earlier work.

The target in a further series is T2, rKv4.3 (Rattus norvegicus, UniProt Q62897).
T2 construct: expressed in transfected cells; host or cells: HEK293T
T2 sequence (Q62897 1-655): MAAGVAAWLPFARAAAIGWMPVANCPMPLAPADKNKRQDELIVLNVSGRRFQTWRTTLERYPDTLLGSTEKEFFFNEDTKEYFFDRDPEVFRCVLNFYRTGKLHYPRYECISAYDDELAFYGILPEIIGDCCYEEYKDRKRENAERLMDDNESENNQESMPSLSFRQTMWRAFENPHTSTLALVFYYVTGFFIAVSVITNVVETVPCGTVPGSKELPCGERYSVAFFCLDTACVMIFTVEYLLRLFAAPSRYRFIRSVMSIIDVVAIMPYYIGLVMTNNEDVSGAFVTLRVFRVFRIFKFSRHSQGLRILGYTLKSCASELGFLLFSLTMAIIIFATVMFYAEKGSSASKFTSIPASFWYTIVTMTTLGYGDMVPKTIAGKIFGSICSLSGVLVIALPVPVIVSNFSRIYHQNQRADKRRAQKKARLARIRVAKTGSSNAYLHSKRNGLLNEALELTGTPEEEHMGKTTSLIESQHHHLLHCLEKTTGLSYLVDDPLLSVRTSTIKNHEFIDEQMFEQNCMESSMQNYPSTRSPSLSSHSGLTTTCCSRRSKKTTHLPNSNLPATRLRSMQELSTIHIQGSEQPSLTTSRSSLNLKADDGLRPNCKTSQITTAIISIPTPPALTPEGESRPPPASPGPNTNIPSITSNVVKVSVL
In words: cell-based. The conditions noted are these: vs HNTX-III.

For series [2], the system named is C57BL/6 mice. Put plainly: Spared nerve injury (SNI) neuropathic pain model. Conditions: mouse, in vivo, ip. As to the method:
In the spared nerve injury (SNI) neuropathic pain model,^[ [39] ^] C57BL/6 mice (weight 18–20 g, 6–8 weeks, both sex) were anesthetized with 3% halothane. The thigh was incised parallel to the femur, and the muscles were bluntly separated to expose the sciatic nerve. The sciatic nerve is ligated with 6.0 silk sutures. […] The paw withdrawal threshold to mechanical stimuli is measured between 0 and 180 min after drug administration.

The subject of series [3] is C57BL/6 mice. In words: CFA-induced inflammatory pain model (von Frey paw withdrawal threshold). Conditions: mouse, in vivo. As to the method: In the Complete Freund's adjuvant (CFA)–induced inflammatory pain modelinflammation is induced by injecting 15 µL of CFA into the intraplantar surface of the right hind paw of C57BL/6 mice (weight 18–20 g, 6–8 weeks, both sex).^[ [38] ^] Mechanical paw withdrawal thresholds are then measured using manual von Frey (Stoelting Co) after 2 days of CFA injection.

T1 sequence (O60939 30-215): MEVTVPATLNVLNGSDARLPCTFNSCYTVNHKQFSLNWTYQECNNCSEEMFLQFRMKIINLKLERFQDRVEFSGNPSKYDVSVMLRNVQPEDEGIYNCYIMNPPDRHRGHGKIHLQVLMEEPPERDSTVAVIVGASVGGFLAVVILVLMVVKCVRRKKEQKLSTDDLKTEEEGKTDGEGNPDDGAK
T1 sequence (Q15858 other isoform, or with tags, fused parts or gaps): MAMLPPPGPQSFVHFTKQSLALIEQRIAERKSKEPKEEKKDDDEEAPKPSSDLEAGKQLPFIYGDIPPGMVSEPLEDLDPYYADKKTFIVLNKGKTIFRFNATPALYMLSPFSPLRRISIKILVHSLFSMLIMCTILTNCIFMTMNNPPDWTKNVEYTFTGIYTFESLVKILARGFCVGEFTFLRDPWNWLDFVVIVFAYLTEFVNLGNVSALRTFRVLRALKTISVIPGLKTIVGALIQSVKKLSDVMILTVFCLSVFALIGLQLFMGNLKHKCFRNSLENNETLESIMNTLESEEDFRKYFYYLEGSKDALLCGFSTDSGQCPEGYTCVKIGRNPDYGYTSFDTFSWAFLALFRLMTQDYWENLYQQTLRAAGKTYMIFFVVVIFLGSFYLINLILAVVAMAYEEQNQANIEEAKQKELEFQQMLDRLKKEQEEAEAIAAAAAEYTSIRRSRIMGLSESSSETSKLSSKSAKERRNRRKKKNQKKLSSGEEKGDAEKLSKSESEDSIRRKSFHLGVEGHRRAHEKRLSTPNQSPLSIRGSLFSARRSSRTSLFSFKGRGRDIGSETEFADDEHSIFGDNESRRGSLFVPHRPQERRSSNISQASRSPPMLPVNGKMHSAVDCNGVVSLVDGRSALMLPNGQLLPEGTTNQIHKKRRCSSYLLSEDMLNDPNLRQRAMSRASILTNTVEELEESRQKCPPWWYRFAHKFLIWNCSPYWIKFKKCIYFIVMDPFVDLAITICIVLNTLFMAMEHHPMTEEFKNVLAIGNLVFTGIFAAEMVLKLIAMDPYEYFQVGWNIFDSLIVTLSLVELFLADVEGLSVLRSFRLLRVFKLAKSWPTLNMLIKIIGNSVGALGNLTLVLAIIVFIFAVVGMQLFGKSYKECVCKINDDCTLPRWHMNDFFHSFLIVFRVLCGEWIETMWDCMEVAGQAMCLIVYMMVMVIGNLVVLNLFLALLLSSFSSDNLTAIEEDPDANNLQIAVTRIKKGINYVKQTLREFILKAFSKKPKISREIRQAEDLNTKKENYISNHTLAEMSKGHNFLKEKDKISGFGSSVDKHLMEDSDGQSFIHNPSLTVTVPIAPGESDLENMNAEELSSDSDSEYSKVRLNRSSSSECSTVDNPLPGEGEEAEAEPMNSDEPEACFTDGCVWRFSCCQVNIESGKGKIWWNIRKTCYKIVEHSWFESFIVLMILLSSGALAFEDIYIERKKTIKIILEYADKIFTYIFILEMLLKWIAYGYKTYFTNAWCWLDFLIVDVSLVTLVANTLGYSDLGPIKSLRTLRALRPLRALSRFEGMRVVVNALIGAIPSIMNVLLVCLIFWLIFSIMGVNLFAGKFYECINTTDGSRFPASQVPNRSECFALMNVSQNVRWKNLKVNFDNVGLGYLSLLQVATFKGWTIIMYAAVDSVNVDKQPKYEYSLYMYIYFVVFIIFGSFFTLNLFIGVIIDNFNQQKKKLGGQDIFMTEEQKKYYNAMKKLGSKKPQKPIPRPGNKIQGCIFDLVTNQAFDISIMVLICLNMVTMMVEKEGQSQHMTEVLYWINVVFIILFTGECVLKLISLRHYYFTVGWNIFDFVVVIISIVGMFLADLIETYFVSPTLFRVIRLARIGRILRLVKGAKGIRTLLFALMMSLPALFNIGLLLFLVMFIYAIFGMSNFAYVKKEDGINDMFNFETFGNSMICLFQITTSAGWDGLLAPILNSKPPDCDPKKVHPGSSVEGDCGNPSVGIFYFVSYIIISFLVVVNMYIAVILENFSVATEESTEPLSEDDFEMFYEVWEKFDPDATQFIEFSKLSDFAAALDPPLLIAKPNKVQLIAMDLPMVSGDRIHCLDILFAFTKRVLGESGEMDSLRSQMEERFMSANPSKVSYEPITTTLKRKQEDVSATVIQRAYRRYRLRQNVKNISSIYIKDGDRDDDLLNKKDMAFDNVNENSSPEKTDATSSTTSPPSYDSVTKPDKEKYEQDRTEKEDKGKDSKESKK
T1 sequence (Q07699 19-218, further chain): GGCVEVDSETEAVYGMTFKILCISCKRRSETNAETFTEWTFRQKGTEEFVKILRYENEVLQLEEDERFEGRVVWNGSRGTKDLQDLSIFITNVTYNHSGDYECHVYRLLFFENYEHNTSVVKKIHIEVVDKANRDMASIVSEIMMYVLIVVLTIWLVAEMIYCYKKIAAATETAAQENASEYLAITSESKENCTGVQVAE

With `CC[C@H](C)[C@H](NC(=O)[C@H](CCCCN)NC(=O)[C@H](Cc1ccc(O)cc1)NC(=O)[C@H](CCCCN)NC(=O)[C@@H]1CSSC[C@@H]2NC(=O)[C@H](CCC(=O)O)NC(=O)[C@H](CC(=O)O)NC(=O)[C@H](CCCCN)NC(=O)CNC(=O)[C@@H]3CCCN3C(=O)[C@H]([C@@H](C)O)NC(=O)[C@@H]3CSSC[C@H](NC(=O)[C@H](C(C)C)NC(=O)[C@H](Cc4c[nH]cn4)NC(=O)[C@H](CC(N)=O)NC(=O)[C@@H]4CCCN4C(=O)[C@H](CSSC[C@H](NC(=O)[C@H](C)N)C(=O)N[C@@H](CCCCN)C(=O)NCC(=O)N[C@@H]([C@@H](C)CC)C(=O)N[C@@H](Cc4ccccc4)C(=O)N[C@@H](C(C)C)C(=O)N[C@@H]([C@@H](C)O)C(=O)N3)NC2=O)C(=O)N[C@@H](CO)C(=O)N[C@@H](CO)C(=O)N[C@@H](CCCCN)C(=O)N[C@@H](Cc2c[nH]cn2)C(=O)N[C@@H](CCCCN)C(=O)N[C@@H](Cc2c[nH]c3ccccc23)C(=O)N1)C(N)=O` [Cl6b] (H-ACKGIFVTCTPGKDECCPNHVCSSKHKWCKYKI-NH2; disulfide 2-17, 9-22, 16-29), the “effect on the current traces of other Kv channels” value in series [1] is reported as “no obvious or only minimal effect”.
In the case of `CC(C)C[C@@H]1NC(=O)[C@H](Cc2ccc(O)cc2)NC(=O)[C@H](CC(N)=O)NC(=O)[C@H](CCCCN)NC(=O)[C@@H]2CSSC[C@H](NC(=O)CNC(=O)[C@@H](N)CCCCN)C(=O)N[C@@H](CCCCN)C(=O)NCC(=O)N[C@@H](Cc3ccccc3)C(=O)NCC(=O)N[C@@H](CC(=O)O)C(=O)N[C@@H](CO)C(=O)N[C@H]3CSSC[C@H](NC1=O)C(=O)N[C@@H](CO)C(=O)N[C@@H](CO)C(=O)N[C@@H](CCCCN)C(=O)N[C@@H](Cc1c[nH]cn1)C(=O)N[C@@H](CCCCN)C(=O)N[C@@H](Cc1c[nH]c4ccccc14)C(=O)N[C@H](C(=O)N[C@@H](CCCCN)C(=O)N[C@H](C(=O)N[C@@H](Cc1ccc(O)cc1)C(=O)N[C@@H](CC(C)C)C(=O)N[C@H](C(N)=O)C(C)C)C(C)C)CSSC[C@H](NC(=O)[C@H](CCC(=O)O)NC(=O)[C@H](CC(N)=O)NC(=O)[C@H](CCCCN)NC(=O)CNC(=O)[C@@H]1CCCN1C(=O)[C@H]([C@@H](C)O)NC3=O)C(=O)N2` [HNTX-III-H4] (H-KGCKGFGDSCTPGKNECCKNYLCSSKHKWCKVYLV-NH2; disulfide 3-18, 10-23, 17-30; N-terminus and C-terminus assumed), the “improved potency on hNav1.7 currents” value at hNav1.7 is 30 fold. For the same molecule, on rKv4.3, the “improved potency for rKv4.3” value is 45 fold.
Turning to `CN1CC[C@]23c4c5ccc(O)c4O[C@H]2[C@@H](O)C=C[C@H]3[C@H]1C5` [morphine], the “mechanical allodynia induced by SNI compared with the saline group” value in the series on C57BL/6 mice [2] is reported as “significantly decreased”. In addition, in the series on C57BL/6 mice [3], the “duration of anti-allodynic effect, CFA model” value is 2 h.
